The record followed here is US5929249A, “Substituted imidazolyl-alkyethio-aldanoic acids” (SmithKline Beecham Corporation, priority 1992, dated 1999).

Structures are written as SMILES.

This assay relates to pressor response to angiotensin II. Briefly: Inhibition of pressor response to angiotensin II in conscious rats. The format is in vivo. The conditions noted are these: Rattus norvegicus, i.v., intravenous angiotensin II 250 mg/kg [sic], change in mean arterial pressure, read-out: IC50 (dose of compound needed to produce 50% inhibition of the control response to angiotensin II). The protocol:
Angiotensin II antagonist activity of the compounds of Formula (I) is assessed by in vitro and in vivo methods. In vitro antagonist activity is determined by the ability of the compounds to compete with ^125 I-angiotensin II for binding to vascular angiotensin II receptors and by their ability to antagonize the contractile response to angiotensin II in the isolated rabbit aorta. In vivo activity is evaluated by the efficacy of the compounds to inhibit the pressor response to exogenous angiotensin II in conscious rats and to lower blood pressure in a rat model of renin dependent hypertension.
Rats are prepared with indwelling femoral arterial and venous catheters and a stomach tube (Gellai et al., Kidney Int. 15:419, 1979). Two to three days following surgery the rats are placed in a restrainer and blood pressure is continuously monitored from the arterial catheter with a pressure transducer and recorded on a polygraph. The change in mean arterial pressure in response to intravenous injections of […] angiotensin II is compared at various time points prior to and following the administration of the compounds intravenously or orally at doses of 0.1 to 300 mg/kg. The dose of compound needed to produce 50% inhibition of the control response to angiotensin II (IC50) is used to estimate the potency of the compounds. […]

`CCCCc1ncc(CSc2ccccc2C(=O)O)n1Cc1ccc(C(=O)O)cc1` [S-[(2-n-Butyl-1-{(4-carboxyphenyl)methyl}-1H-imidazol-5-yl)methyl]thiosalicyclic Acid]: the ED50 is about 0.5 mg/kg.
